Assay results as given in patent US20210177879A1, “VITAMIN D RECEPTOR AGONIST” (Guanghzou University of Chinese Medicine, priority 2018, published 2021).

Experiments:
[1] = test system: AOM/DSS colon cancer model; assay: AOM/DSS colon cancer model, Experiment 2 (colon length, thickness, tumors); format: in vivo, Balb/c mice; details: 2 mg/kg once a day
Method: (§1) Experimental method: 70 Balb/c mice of 6-8 weeks were purchased from the Experimental Animal Center in Guangzhou University of Chinese Medicine, weighed about 18-22 g, and subjected to adaptive feeding for 10 days. Modeling was divided into three stages. In the first stage, except for the normal group of animals being given saline injection, each of the other animals were intraperitoneally injected with a carcinogen AOM (10 mg/kg), and given free access to 2% DSS water from the next day for 7 days, and then given access to replaced regular drinking water for 14 days. In the second stage, the animals were given free access to 2% DSS water for 10 days, and then given access to replaced regular drinking water for 14 days. In the third stage, the animals were given free access to 2% DSS water for 10 days, and then given access to replaced regular drinking water for 11 days. The normal group was given access to regular drinking water throughout the experiment. The diet, water drinking and body weights of the animals were recorded daily and DAI scores were made, and the animals were killed and harvested at the 10th week. In this experiment, the animals were divided into groups and administrated on the first day of a modeling period of the second stage, where a total of 7 groups were set, each group including 10 animals. The first group was a blank control group (control) that was given access to drinking water by gavage; the second group was a model group (model), in which a total of 10 animals were given access to drinking water by gavage; the third group was a vitamin D3 positive administration control group (VD3, 0.2 mg/kg); and the fourth to seventh groups were given monotropein, desacetyl asperulosidic acid, asperuloside, and asperulosidic acid (groups labeled as: Mo, As, Aa, Da), respectively at a given dose of 2 mg/kg. Dosing was conducted once a day until the end of the experiment. At the end of the experiment, the animals were anesthetized and harvested, and the colon tissue was taken, measured with a ruler for the length, and measured with a vernier caliper for the thickness. The effects of monotropein, desacetyl asperulosidic acid, asperuloside and asperulosidic acid on expression of the vitamin D receptor were detected.

vitamin D receptor = assay: Expression of vitamin D receptor in colon tissues, Experiment 2 (Western blot, immunohistochemistry); format: in vivo, Balb/c mice; details: compared with the blank group; VD3 0.2 mg/kg, four compounds 2 mg/kg
Method: as §1

HT29 colon cancer cells = assay: In vitro proliferation inhibition of HT29 colon cancer cells; format: cell-based; details: concentration of 1 uM; compared with blank control group
Method: (§2) The HT29 cells were thawed, and cultured in a changed medium after 24 hours. Medium preparation method: 6% serum, 1% of a bispecific antibody+a 1640 basal medium. After grown to confluent, the cells were digested and subcultured to expand the number of cells. When reached the required amount, the cells were digested by trypsin, centrifuged, and resuspended in PBS to prepare a cell suspension of 1×10^8 cells/ml. A part of the cell suspension was added with the monotropein, desacetyl asperulosidic acid, asperuloside, and asperulosidic acid respectively, and the inhibition rate (%) of tumor cell proliferation by each of these different compounds was examined.

HT29 transplanted tumor = assay: Transplanted tumor of HT29 colon cancer cells in nude mice; format: in vivo; details: 2 mg/kg in combination with 5-fluorouracil at half dose (20 mg/kg), once a day; effect comparable to 5-fluorouracil alone 40 mg/kg
Method: as §2
(§3) Male adult nude mice, which had the body weights of 20-24 g, were purchased from Guangdong Medical Laboratory Animal Center. After 7 days of adaptive feeding of the animals, except for the blank group, the remaining animals were injected with 0.2 ml of a cell suspension in PBS at ventrodorsal and scapula sites of them, the response conditions of the animals were observed, and the body weights of the animals were determined once a week. After 2 weeks of observation, the animals were grouped into the following groups according to tumor size: a blank group; a model group; a 5-fluorouracil control group (5-Full, 40 mg/kg); monotropein+5-fluorouracil (2 mg/kg monotropein+20 mg/kg 5-fluorouracil), desacetyl asperulosidic acid+5-fluorouracil (2 mg/kg desacetyl asperulosidic acid+20 mg/kg 5-fluorouracil), asperuloside+5-fluorouracil (2 mg/kg asperuloside+20 mg/kg 5-fluorouracil), asperulosidic acid+5-fluorouracil (2 mg/kg asperulosidic acid+20 mg/kg 5-fluorouracil), these groups being labeled as: Mo, As, Aa, Da. Each group included 8 animals; and administration was conducted once a day.
(§4) The status, death conditions, and eating and drinking conditions of the animals were observed daily. The body weights of the animals were determined once a week and the tumor size of the animals was determined every 4 days. The tumor volume of the animals was determined by using a vernier caliper. After 1 month of administration, the animals were sacrificed after blood was sampled from the orbit thereof, and the tumor was separated and weighed.

[2] = test system: SW1990 breast cancer cells; assay: In vitro proliferation inhibition of SW1990 breast cancer cells; format: cell-based; details: concentration of 1 uM; compared with blank control group
Method: as §2, with “SW1990” for “HT29”

[3] = test system: transplanted tumor of SW1990 breast cancer cells; assay: Transplanted tumor of SW1990 breast cancer cells in nude mice; format: in vivo; details: 2 mg/kg in combination with 5-fluorouracil at half dose (20 mg/kg), once a day; effect comparable to 5-fluorouracil alone 40 mg/kg
Method: as §2, with “SW1990” for “HT29”
as §3, with “of a SW1990 cell suspension” for “of a cell suspension”
as §4

[4] = test system: SMB-231 pancreatic cancer cells; assay: In vitro proliferation inhibition of SMB-231 pancreatic cancer cells; format: cell-based; details: concentration of 1 uM; compared with blank control group
Method: as §2, with “SMB-231 pancreatic cancer” for “HT29”

[5] = test system: transplanted tumor of MB-231 pancreatic cancer cells; assay: Transplanted tumor of MB-231 pancreatic cancer cells in nude mice; format: in vivo; details: 2 mg/kg in combination with 5-fluorouracil at half dose (20 mg/kg), once a day; effect comparable to 5-fluorouracil alone 40 mg/kg
Method: as §2, with “SMB-231 pancreatic cancer” for “HT29”
as §3, with “of a SMB-231 pancreatic cancer cell suspension” for “of a cell suspension”
as §4

With `CC(=O)OCC1=C[C@@H]2OC(=O)C3=CO[C@@H](O[C@@H]4O[C@H](CO)[C@@H](O)[C@H](O)[C@H]4O)[C@H]1[C@@H]32` [asperuloside] the “incidence and development of colorectal cancers” value (“incidence and development” below) [1] was “inhibiting the incidence and development of colorectal cancers”, the “expression of the vitamin D receptor in the colon tissues (Western blot and immunohistochemistry)” value (“expression of the vitamin D receptor” for short) (vitamin D receptor) was “promote expression enhancement” and the “proliferation of HT29 colorectal cancer cells in vitro” value (HT29 colon cancer cells) was “significantly inhibit the proliferation”. The “tumor proliferation in HT29 tumor-bearing mice” value (HT29 transplanted tumor) was “significantly inhibit tumor proliferation”, the “proliferation of SW1990 cells in vitro” value [2] was “significantly inhibit the proliferation” and the “tumor proliferation in SW1990 tumor-bearing mice” value [3] was “significantly inhibit tumor proliferation”. The “proliferation of SMB-231 pancreatic cancer cells in vitro” value [4] was “significantly inhibit the proliferation” and the “tumor proliferation in SMB-231 tumor-bearing mice” value [5] was “significantly inhibit tumor proliferation”.
For `CC(=O)OCC1=C[C@H](O)[C@@H]2C(C(=O)O)=CO[C@@H](O[C@@H]3O[C@H](CO)[C@@H](O)[C@H](O)[C@H]3O)[C@H]12` [asperulosidic acid], the “incidence and development” value [1] was “inhibiting the incidence and development of colorectal cancers”, the “expression of the vitamin D receptor” value (vitamin D receptor) was “promote expression enhancement” and the “proliferation of HT29 colorectal cancer cells in vitro” value (HT29 colon cancer cells) was “significantly inhibit the proliferation”. For the same compound, the “tumor proliferation in HT29 tumor-bearing mice” value (HT29 transplanted tumor) was “significantly inhibit tumor proliferation”, the “proliferation of SW1990 cells in vitro” value [2] was “significantly inhibit the proliferation” and the “tumor proliferation in SW1990 tumor-bearing mice” value [3] was “significantly inhibit tumor proliferation”. The “proliferation of SMB-231 pancreatic cancer cells in vitro” value [4] was “significantly inhibit the proliferation” and the “tumor proliferation in SMB-231 tumor-bearing mice” value [5] was “significantly inhibit tumor proliferation”.
In the case of `O=C(O)C1=CO[C@@H](O[C@@H]2O[C@H](CO)[C@@H](O)[C@H](O)[C@H]2O)[C@@H]2C(CO)=C[C@H](O)[C@H]12` [desacetyl asperulosidic acid], the “incidence and development” value [1] is reported as “inhibiting the incidence and development of colorectal cancers”, the “expression of the vitamin D receptor” value (vitamin D receptor) is reported as “promote expression enhancement” and the “proliferation of HT29 colorectal cancer cells in vitro” value (HT29 colon cancer cells) is reported as “significantly inhibit the proliferation”. For the same compound, the “tumor proliferation in HT29 tumor-bearing mice” value (HT29 transplanted tumor) was “significantly inhibit tumor proliferation”, the “proliferation of SW1990 cells in vitro” value [2] was “significantly inhibit the proliferation” and the “tumor proliferation in SW1990 tumor-bearing mice” value [3] was “significantly inhibit tumor proliferation”. The “proliferation of SMB-231 pancreatic cancer cells in vitro” value [4] was “significantly inhibit the proliferation” and the “tumor proliferation in SMB-231 tumor-bearing mice” value [5] was “significantly inhibit tumor proliferation”.
In the case of `C=C1CC[C@H](O)C/C1=C/C=C1\CCC[C@]2(C)[C@@H]([C@H](C)CCCC(C)C)CC[C@@H]12` [vitamin D3, reference compound], the “expression of the vitamin D receptor” value (vitamin D receptor) is reported as “promote expression enhancement”.
